In article PMC9960243, “Cytotoxic and Antileishmanial Effects of the Monoterpene β-Ocimene” (Pharmaceuticals, 2023):
Like-named read-outs stand apart in the source and are kept apart here. Blank lines part the entries; values can stand above or below the compound they belong to.

How the values were obtained:
[1] = system: L. infantum promastigotes; design: method as in PMID 31151304; settings: read-out: IC50 against L. infantum promastigotes; cited from earlier work
RAW 264.7 macrophages [2] = assay: Cytotoxic effect on mammalian cells (MTT, 72 h), RAW 264.7; format: cell-based; settings: MTT
Method: (§1) RAW 264.7 lineage macrophages (available from the cell bank in Rio de Janeiro, Brazil) were used, grown in sterile bottles with DMEM medium, pH 7.2 containing 10% FBS and 1% penicillin 100 U/mL and streptomycin 100 μg/mL, and kept in an oven at 37 °C and 5% CO2.
(§2) In a 96-well plate, RAW 264.7 macrophages were plated at 10^5 cells per well in 100 μL of supplemented DMEM medium. The plate was incubated for 3 h at 37 °C and 5% CO2 for cell adhesion. Afterwards, to remove non-adhered cells, washing with PBS (phosphate-buffered saline solution) was performed. Furthermore, 100 μL of DMEM supplemented with β-ocimene (3.12–400 μM), and the reference drugs, meglumine antimoniate (250–2000 μM) and amphotericin B (0.062–0.5 μM) were then added to the wells, with oven incubation at 37 °C, and 5% CO2 for 72 h. Then, 10 μL of MTT (5 mg/mL) per well was then added, being kept for another 4 h in an oven at 37 °C and 5% CO2. The supernatant was removed, and 100 µL of DMSO was added to all wells. After 30 min of stirring, readings were taken at 540 nm. DMEM supplemented with 0.5% DMSO was used as a negative control and considered as 100% macrophage viability. The selectivity index for each treatment was calculated by dividing the CC50 by the IC50, or EC50 [32].

Vero cells = assay: Cytotoxic effect on mammalian cells, Vero; format: cell-based
[3] = system: RAW 264.7 macrophages infected with Leishmania amazonensis; assay: Treatment of infected macrophages (intra-macrophagic amastigotes, 72 h); format: cell-based; settings: for EC50: infected RAW 264.7 macrophages, read-out: Intramacrophagic Amastigotes EC50
Method: In a 24-well plate with 13 mm round sterile cover slips, RAW 264.7 macrophages were added (at a concentration of 10^5 cells to 1 mL of supplemented DMEM. For cell adhesion, the plates were incubated at 37 °C and 5% CO2 for 3 h. Three washes were then performed with PBS at 37 °C to discard non-adherent cells, after which 1 mL of DMEM supplemented (stationary phase) promastigote forms of L. amazonensis was added at the ratio of 10 promastigotes per macrophage. The plate was then incubated at 5% CO2 and 37 °C for 4 h. After infection, the medium was aspirated and the treatment was added using 1 mL of DMEM supplemented with β-ocimene (3.12–25 μM) with the reference drugs, meglumine antimoniate (1.56–200 μM) and amphotericin B (0.031–2 μM), this was subsequently incubated at 37 °C and 5% CO2 for 72 h. Finally, the coverslips were removed, fixed, stained, and mounted on permanent slides using Entellan. The number of infected macrophages and the number of parasites per macrophage were counted: 300 cells were evaluated on each slide at 1000× magnification. The infection index was calculated by multiplying the number of infected macrophages by the number of amastigotes per infected macrophage. The negative control was performed using DMEM with 0.5% DMSO. The supernatant was removed at the end of the experiment and kept at −20 °C for later use in nitric oxide dosing tests.

[4] = system: Leishmania (Leishmania) amazonensis axenic amastigotes; assay: microbe, parasite or virus in culture; format: cell-based; settings: 72 h; for EC50: MTT
Method: (§3) Strains of Leishmania (Leishmania) amazonensis (IFLA/BR/67/PH8) (promastigote form) were cultivated in Schneider’s insect medium (supplemented with 10% FBS, and 1% antibiotic solution), at 26 °C, and at pH 7, in a biological oxygen demand (BOD) incubator. To transform the promastigote forms into axenic amastigotes, the temperature was increased to 32 °C and the pH of the medium was adjusted to 5.5 [14].
(§4) Promastigote and axenic amastigote growth inhibition was tested as previously described by DIAS et al.. In a 96-well plate, parasites were seeded at 10^6 parasites per well in 100 μL of supplemented Schneider medium. The parasites were treated with differing concentrations of β-ocimene (1.56–12.5 μM), and reference drugs, meglumine antimoniate (500–40,000 μM) and amphotericin B (0.062–0.5 μM). The plates were incubated in a BOD incubator at 26 °C for 72 h. Afterwards, 10 µL of MTT (5 mg/mL) was added to each well, and the plate was incubated again for 4 h, when 50 µL of 10% SDS was added. Absorbances were then measured using an ELISA plate reader (BioSystems model ELx800, Curitiba, PR, Brazil) at 540 nm. The negative control consisted of Schneider medium with 0.5% DMSO and was considered as 0% inhibition.

[5] = system: Leishmania (Leishmania) amazonensis promastigotes; assay: microbe, parasite or virus in culture; format: cell-based; settings: 72 h; for IC50: MTT
Method: as §3, §4

[6] = system: L. amazonensis promastigotes; design: method as in PMID 19321295; settings: read-out: IC50 against L. amazonensis promastigotes; cited from earlier work
[7] = system: L. amazonensis axenic amastigotes; design: method as in PMID 23457021; settings: read-out: IC50 against axenic amastigotes of L. amazonensis; cited from earlier work
[8] = Cytotoxic effect on mammalian cells (MTT, 72 h), RAW 264.7; format: cell-based; settings: mouse, RAW 264.7 macrophages; for CC50 at 72 h: pH 7.2, MTT
Method: as §1, §2

[9] = Cytotoxic effect on mammalian cells, Vero; format: cell-based; settings: African green monkey, Vero cells
[10] = system: Promastigote forms of L. amazonensis; assay: Parasite morphological evaluation using atomic force microscopy (AFM); format: cell-based, Leishmania amazonensis; settings: 1 × IC50 and 2 × IC50, 72 h
Method: Promastigote forms of L. amazonensis were grown in 96-well plates at a concentration of 10^6 per well in complete Schneider medium. β-ocimene was added at concentrations equivalent to IC50, 2 × IC50, and 4 × IC50, and incubated at 26 °C for 72 h in BOD, and the parasites were then washed twice with ice-cold PBS (under 1100× g for 15 min at room temperature), and then fixed with 2.5% (v/v) glutaraldehyde in PBS, pH 7.2, for 1 h. Morphological analysis using AFM (TT-AFM equipment, AFM Workshop-USA), at a resonant frequency of approximately 242 kHz, was then performed.

RAW 264.7 macrophages [11] = assay: Phagocytosis assay (stained zymosan); format: cell-based; settings: 3.12–25 μM, 72 h, macrophages not stimulated by L. amazonensis
Method: RAW 264.7 macrophages were plated in a 96-well plate at 10^5 cells per well in 100 μL of DMEM medium containing different concentrations of β-ocimene (3.12–25 μM). The plate was incubated for 72 h at 37 °C and 5% CO2; after which 10 μL of stained zymosan per well was added, and the plate conditioned for 30 min at 37 °C. Then, 100 μL of Baker’s fixative (4% v/v formaldehyde, 2% w/v sodium chloride, and 1% w/v calcium acetate in distilled water) was added to stop phagocytosis, and 30 min later, the plate was washed with 0.9% saline to remove the zymosan not phagocytized by macrophages. Afterwards, the supernatant was removed and 100 μL of extraction solution was added and solubilized in a Kline shaker. Absorbances were measured at 540 nm.

RAW 264.7 macrophages [12] = assay: Lysosomal activity (neutral red uptake); format: cell-based; settings: 12.5 and 25 µM, 72 h, macrophages not stimulated by L. amazonensis
Method: RAW 264.7 macrophages were added (10^5 cells per well) to the 96-well plate in 100 μL of DMEM with different concentrations of β-ocimene (3.12–25 μM). The plate was incubated for 72 h at 37 °C and 5% CO2. Afterwards, 10 μL of neutral red 0.2% DMSO solution was added and incubated for 30 min. The supernatant was then removed, and the wells were washed with 0.9% saline at 37 °C, and 100 μL of extraction solution was added to dissolve the neutral red inside the lysosomal secretion vesicles. After 30 min on a Kline shaker, the plate was read at 540 nm.

[13] = system: Leishmania amazonensis promastigote plasmatic membrane; format: cell-based; settings: not told
Method: Plasma membrane integrity in promastigote forms of L. amazonensis treated with β-ocimene was evaluated using the SYTOX green dye method. Promastigote forms in logarithmic growth were seeded in Schneider medium and exposed to β-ocimene at concentrations corresponding to IC50, 2 × IC50 and 4 × IC50 in the presence of SYTOX green dye (5 μM) for 7 h at 26 °C in a BOD incubator. The plates were then read in a fluorescence reader with an emission filter of 523 nm and excitation at 488 nm.

[14] = system: macrophages infected with L. amazonensis; assay: Measurement of reactive oxygen species (H2DCFDA); format: cell-based; settings: RAW 264.7 macrophages infected with L. amazonensis, 72 h
Method: ROS levels, as produced by the macrophages infected with L. amazonensis and treated with β-ocimene, were determined by the H2DCFDA test. Macrophages were infected according to Section 2.5 and treated with β-ocimene (3.12–12.6 µM) for 72 h. At the end of the period, 10 µL of 20 µM H2 DCFDA dye was added. The plate was incubated at 37 °C for 30 min (in the dark), and the fluorescence intensity was measured using a spectrofluorometer (FLx800) with excitation at 485 nm and emission at 528 nm.

[15] = system: RAW 264.7 macrophages uninfected and infected with Leishmania amazonensis; assay: Th1/Th2 cytokine (ELISA) and nitric oxide (Griess) production in macrophage supernatants; format: cell-based; settings: 72 h
Method: Modulation of Th1 (TNF-α, IL-12), Th2 (IL-10, IL-6), and NO cytokine production was investigated in the supernatants of infected macrophages, whether treated or untreated with β-ocimene. Cytokine concentration (pg/mL) in macrophage supernatants was determined using the ELISA sandwich technique according to the manufacturer’s (eBioscience) instructions, using interpolation with a standard curve of recombinant cytokines. Optical density was read at 450 nm using a microplate spectrophotometer.
Nitrite levels from the supernatants of the infected macrophages, whether treated or untreated with β-ocimene, were used indirectly to estimate NO production. The NO concentration (µM) was determined using the Griess reaction following a previously described methodology, by interpolation with a standard curve with NaNO2.
LPS (1 μg/mL) plus IFN-γ (1000 U/mL) were used as a positive control.

[16] = Leishmania amazonensis, RAW264.7, 72 h
[17] = Leishmania, read-out: % Cytotoxicity Axenic Amastigotes
[18] = Leishmania, read-out: % Cytotoxicity Promastigotes
[19] = RAW 264.7 macrophages infected with L. amazonensis

Compound: Cc1ccc(C(C)C)c(O)c1 [thymol]
IC50 [1]: 48 µM

Compound: Meglumine antimoniate [reference compound]
CC50 (RAW 264.7 macrophages [2]): 15900 µM
CC50 (Vero cells): 22800 µM
EC50 ([3]; 72 h): 578 ± 19.1 µM
EC50 [4]: 1730 ± 36.8 µM
IC50 [5]: 2150 ± 31 µM

Compound: C=C(C)[C@H]1CC=C(C)CC1 [limonene]
IC50 [6]: 252 µM

Compound: NC(=S)NN=Cc1ccc([N+](=O)[O-])cc1 [4-nitrobenzaldehyde thiosemicarbazone]
IC50 [7]: 8 µM

EC50 [3, 16]: 0.13 µM
Compound: C[C@@H]1[C@H](O)[C@@H](C)/C=C/C=C/C=C/C=C/C=C/C=C/C=C/[C@H](O[C@@H]2O[C@H](C)[C@@H](O)[C@H](N)[C@@H]2O)C[C@@H]2O[C@](O)(C[C@@H](O)C[C@@H](O)[C@H](O)CC[C@@H](O)C[C@@H](O)CC(=O)O[C@H]1C)C[C@H](O)[C@H]2C(=O)O [Amphotericin B, reference compound]
CC50 at 72 h [8]: 0.39 ± 0.03 µM
CC50 [9]: 2.46 ± 0.6 µM
EC50 ([4]; Leishmania): 0.51 ± 0.02 µM
IC50 ([5]; Leishmania): 0.35 ± 0.09 µM

EC50 [3, 16]: 0.89 ± 0.03 µM
Compound: C=C/C(C)=C/CC=C(C)C [β-ocimene, beta-3,7-dimethyl-1,3,6-octatriene]
morphological alterations (AFM) [10]: Loose membrane texture and abnormalities in the cell shape
cytotoxicity at 72 h, 50 µM ([8]; pH 7.2, 50 µM): 1.17 ± 0.09%
cytotoxicity at 72 h, 100 µM ([8]; pH 7.2, 100 µM): 46.3 ± 4.11%
cytotoxicity at 72 h, 200 µM ([8]; pH 7.2, 200 µM): 56.6 ± 5.92%
cytotoxicity at 72 h, 400 µM ([8]; pH 7.2, 400 µM): 81.7 ± 8.16%
CC50 at 72 h [8]: 114 ± 8.2 µM
CC50 [9]: 299 ± 7.17 µM
cytotoxicity at 50 µM ([9]; 50 µM): 1.14 ± 0.1%
cytotoxicity at 100 µM ([9]; 100 µM): 6.04 ± 0.41%
cytotoxicity at 200 µM ([9]; 200 µM): 36.2 ± 4.26%
cytotoxicity at 400 µM ([9]; 400 µM): 69.2 ± 4.9%
phagocytic activity (zymosan particles) (RAW 264.7 macrophages [11]): no increase in phagocytosis of zymosan particles
times more selective than amphotericin B (selectivity index) ([3]; intra-macrophagic amastigote form): 42.88 times
infection index (infection rate) ([3]; low concentrations, 72 h): able to reduce
number of amastigotes per macrophage ([3]; low concentrations, 72 h): able to reduce
percentage of infected macrophages ([3]; low concentrations, 72 h): able to reduce
lysosomal volume (neutral red retention) (RAW 264.7 macrophages [12]): increase in the volume of lysosomal vesicles
cytotoxicity at 1.56 µM [4, 17]: 59.1 ± 2.4%
cytotoxicity at 3.12 µM [4, 17]: 79.1 ± 3.7%
cytotoxicity at 6.25 µM [4, 17]: 100%
cytotoxicity at 12.5 µM [4, 17]: 100%
EC50 ([4]; Leishmania): 1.12 ± 0.05 µM
cytotoxicity at 1.56 µM [5, 18]: 27.3 ± 2.16%
cytotoxicity at 3.12 µM [5, 18]: 70.2 ± 2.2%
cytotoxicity at 6.25 µM [5, 18]: 81.4%
cytotoxicity at 12.5 µM [5, 18]: 100%
IC50 ([5]; Leishmania): 2.78 ± 0.17 µM
plasmatic membrane permeability (SYTOX green fluorescent signal) [13]: significant increase in permeability
ROS production [14]: increase
IL-6 levels [15, 19]: decrease
IL-10 levels [15, 19]: decrease in levels of IL-10
IL-12 levels [15, 19]: did not affect IL-12 levels
NO production [15, 19]: increase
TNF-α production [15, 19]: increase in the production of TNF-α
cytokine levels of uninfected macrophages compared to the control ([15]; uninfected RAW 264.7 macrophages): no significant differences

Compound: Cc1ccc(C(C)C)cc1O [carvacrol]
IC50 [1]: 65 µM
